Test results taken from paper PMC6005341, “Identification of “sarsasapogenin-aglyconed” timosaponins as novel Aβ-lowering modulators of amyloid precursor protein processing” (Chemical Science, 2016).
Where two headings read alike, the source gives them in different places.

Experiments:
[1] = system: Aβ42 production in N2A-APPswe cells; test: Aβ42 in conditioned medium of N2A-APPswe cells by ELISA, 18 h treatment; format: cell-based; settings: for IC50: mean ± standard deviation, n ≥ 3
From the text: Sigma-Aldrich Chemical Co. unless otherwise specified. SSG (1) was purchased from Wako Pure Chemical Industries, Ltd. Diosgenin (6), Dioscin (9), Polyphyllin D (10), Timosaponin BI (22) and Timosaponin BII (23) were purchased from Chengdu Must Bio-Technology Co.
Ltd. Yamogenin (7) was bought from Ambinter c/o Greenpharma while Smilagenin (24) was bought from Steraloids Inc. Substances dissolved in DMSO as stock solutions. Cell culture medium constituents were purchased from Life Technologies, Inc.
Cell culture: Neuro-2A cells expressing Swedish mutants of APP (N2A-APPswe provided by Prof. Yifan Han, The Hong Kong Polytechnic University)1 was cultured in minimal essential medium with 2 mM glutamine, 2 mM pyruvate and 10% fetal bovine serum. […]
(§1) Aβ ELISA: Aβ concentrations in conditioned medium were assayed using ELISA kits for […]

[2] = system: Aβ40 and Aβ38 in N2A-APPswe cells; test: Aβ40 and Aβ38 in conditioned medium of N2A-APPswe cells by ELISA; format: cell-based; settings: compared with Aβ42
Procedure: as §1

Neuro-2A cells = test: Neurite outgrowth, type III β-tubulin immunostaining; format: cell-based; settings: at concentrations that lower Aβ production, 18 h
Procedure: Immunofluorescence examination of neurite outgrowth: Neuro-2A cells were seeded at 1×105 per glass bottom dishes. After treatment, cells were fixed with 4% paraformaldyde for 10 min, permeabilized with 0.1% Triton X-100, and then blocked with 1% BSA in PBS.
The cells were incubated with monoclonal antibody raised against type III β-tubulin (Sigma) for 1 h followed by Alexa488 conjugated secondary antibody. Neurite morphology was examined under fluorescence microscope. […]

[3] = system: brain Aβ / amyloid in APPswe transgene; settings: oral 25 mg/kg for 18 h, ref FASEB J. (2006) 20: E599; cited from earlier work
[4] = N2a-APPswe, read-out: IC50 in lowering Aβ42 production, N2A-APPswe cells
[5] = N2A-APPswe cells, read-out: IC50 in lowering Aβ42 production

## C[C@@H]1CC[C@@]2(OC1)O[C@H]1C[C@H]3[C@@H]4C[C@H](O)[C@H]5C[C@@H](O)CC[C@]5(C)[C@H]4CC[C@]3(C)[C@H]1[C@@H]2C [5α-H, 6α-OH diosgenin (15), 5α-H, 6α-OH diosgenin]
[1]; [4]
  IC50: > 100 µM

## C[C@H]1CC[C@@]2(OC1)O[C@H]1C[C@H]3[C@@H]4C[C@H](O)[C@H]5C[C@@H](O)CC[C@]5(C)[C@H]4CC[C@]3(C)[C@H]1[C@@H]2C [5α-H, 6α-OH yamogenin (17), 5α-H, 6α-OH yamogenin]
[1]; [4]
  IC50: > 100 µM

## C[C@@H]1CC[C@@]2(OC1)O[C@H]1C[C@H]3[C@@H]4C[C@@H](O)[C@@H]5C[C@@H](O)CC[C@]5(C)[C@H]4CC[C@]3(C)[C@H]1[C@@H]2C [5β-H, 6β-OH diosgenin (16), 5β-H, 6β-OH diosgenin]
[1]; N2A-APPswe cells
  Aβ42-lowering effect (in words): ineffective
[1]; [4]
  IC50: > 100 µM

## C[C@H]1CC[C@@]2(OC1)O[C@H]1C[C@H]3[C@@H]4C[C@@H](O)[C@@H]5C[C@@H](O)CC[C@]5(C)[C@H]4CC[C@]3(C)[C@H]1[C@@H]2C [5β-H, 6β-OH yamogenin (18), 5β-H, 6β-OH yamogenin]
[1]; [4]
  IC50: 45 ± 4 µM

## C[C@H]1CC[C@@]2(OC1)O[C@H]1C[C@H]3[C@@H]4CC[C@@H]5C[C@@H](O[C@@H]6O[C@H](CO)[C@@H](O)[C@H](O)[C@H]6O)CC[C@]5(C)[C@H]4CC[C@]3(C)[C@H]1[C@@H]2C [AA (5), Asparagoside A]
[1]; N2A-APPswe cells
  Aβ42-lowering effect (in words): effectively lowered
[1]; [4]
  IC50: ~6 µM
[2]
  effect on Aβ40 and Aβ38: much smaller effect

## C[C@@H]1CC[C@@]2(OC1)O[C@H]1C[C@H]3[C@@H]4CC=C5C[C@@H](O[C@@H]6O[C@H](CO)[C@H](O)[C@H](O)[C@H]6O)CC[C@]5(C)[C@H]4CC[C@]3(C)[C@H]1[C@@H]2C [Capsicoside A3 (8), capsicoside A3]
[1]; [5]
  IC50: > 100 µM

## C[C@@H]1CC[C@@]2(OC1)O[C@H]1C[C@H]3[C@@H]4CC=C5C[C@@H](O[C@@H]6O[C@H](CO)[C@@H](O[C@@H]7O[C@@H](C)[C@H](O)[C@@H](O)[C@H]7O)[C@H](O)[C@H]6O[C@@H]6O[C@@H](C)[C@H](O)[C@@H](O)[C@H]6O)CC[C@]5(C)[C@H]4CC[C@]3(C)[C@H]1[C@@H]2C [Compound 9, dioscin]
[1]; N2A-APPswe cells
  Aβ42-lowering effect (in words): insignificant Aβ42-lowering effects

## C[C@@H]1CC[C@@]2(OC1)O[C@H]1C[C@H]3[C@@H]4CC[C@H]5C[C@@H](O[C@@H]6O[C@H](CO)[C@@H](O[C@@H]7O[C@@H](C)[C@H](O)[C@@H](O)[C@H]7O)[C@H](O)[C@H]6O[C@@H]6O[C@@H](C)[C@H](O)[C@@H](O)[C@H]6O)CC[C@]5(C)[C@H]4CC[C@]3(C)[C@H]1[C@@H]2C [Compound 11, dihydrodioscin]
[1]; N2A-APPswe cells
  Aβ42-lowering effect (in words): insignificant Aβ42-lowering effects

## C[C@H](CO)CC[C@H]1O[C@H]2C[C@H]3[C@@H]4CC[C@@H]5C[C@@H](O)CC[C@]5(C)[C@H]4CC[C@]3(C)[C@H]2[C@@H]1C [Dihydrosarsasapogenin (21), dihydrosarsasapogenin]
[1]; [4]
  IC50: > 100 µM

## C[C@@H]1CC[C@@]2(OC1)O[C@H]1C[C@H]3[C@@H]4CC=C5C[C@@H](O)CC[C@]5(C)[C@H]4CC[C@]3(C)[C@H]1[C@@H]2C [Diosgenin (6), diosgenin]
[1]; N2A-APPswe cells
  Aβ42-lowering effect (in words): no effect
[1]; [5]
  IC50: > 100 µM
Neuro-2A cells
  neurite outgrowth: not shared

## C[C@H]1CC[C@@]2(OC1)O[C@H]1C[C@H]3[C@@H]4CC[C@@H]5C[C@H](O)CC[C@]5(C)[C@H]4CC[C@]3(C)[C@H]1[C@@H]2C [Episarsasapogenin (20), episarsasapogenin]
[1]; N2A-APPswe cells
  Aβ42-lowering effect (in words): inactive
[1]; [4]
  IC50: > 100 µM
Neuro-2A cells
  neurite outgrowth: not shared

## CC(C)[C@@H](C)/C=C/[C@@H](C)[C@H]1CC[C@H]2C3=CC=C4C[C@@H](O)CC[C@]4(C)[C@H]3CC[C@]12C [Ergosterol, reference compound]
[1]; [5]
  IC50: > 100 µM

## CC1CCC2(OC1)OC1CC3C4CCC5CC(OCC(=O)O)CCC5(C)C4CCC3(C)C1C2C (stereo not shown) [Ethereal SSG (29), ethereal SSG]
[1]; [4]
  IC50: 27 ± 8 µM

## C[C@H]1CC[C@@]2(OC1)O[C@H]1C[C@H]3[C@@H]4CC[C@H]5C[C@@H](O)CC[C@]5(C)[C@H]4CC[C@]3(C)[C@H]1[C@@H]2C [Neotigogenin (14), neotigogenin]
[1]; N2A-APPswe cells
  Aβ42-lowering effect (in words): ineffective
[1]; [4]
  IC50: > 100 µM
Neuro-2A cells
  neurite outgrowth: not shared

## CC(C)=CCC[C@](C)(O)[C@H]1CC[C@]2(C)[C@@H]1[C@H](O)C[C@@H]1[C@@]3(C)CC[C@H](O[C@@H]4O[C@H](CO)[C@@H](O)[C@H](O)[C@H]4O[C@@H]4O[C@H](CO)[C@@H](O)[C@H](O)[C@H]4O)C(C)(C)[C@@H]3CC[C@]12C [Rg3]
[3]
  Brain Aβ1-42 reduced by: 30%

## C[C@H]1CC[C@@]2(OC1)O[C@H]1C[C@H]3[C@@H]4CC[C@@H]5CC(=O)CC[C@]5(C)[C@H]4CC[C@]3(C)[C@H]1[C@@H]2C [Sarsasapogenone (19), sarsasapogenone]
[1]; N2A-APPswe cells
  Aβ42-lowering effect (in words): comparable effect to 1
[1]; [4]
  IC50: 50 ± 5 µM

## C[C@@H]1CC[C@@]2(OC1)O[C@H]1C[C@H]3[C@@H]4CC[C@@H]5C[C@@H](O)CC[C@]5(C)[C@H]4CC[C@]3(C)[C@H]1[C@@H]2C [Smilagenin (24), smilagenin]
[1]; N2A-APPswe cells
  Aβ42-lowering effect (in words): ineffective
[1]; [4]
  IC50: > 100 µM
Neuro-2A cells
  neurite outgrowth: not shared

## C[C@H]1CC[C@@]2(OC1)O[C@H]1C[C@H]3[C@@H]4CC[C@@H]5C[C@@H](O[C@@H]6O[C@H](CO)[C@H](O[C@@H]7O[C@H](CO)[C@@H](O)[C@H](O)[C@H]7O)[C@H](O)[C@H]6O[C@@H]6O[C@H](CO)[C@@H](O)[C@H](O)[C@H]6O)CC[C@]5(C)[C@H]4CC[C@]3(C)[C@H]1[C@@H]2C [TAV (4), timosaponin A V]
[1]; N2A-APPswe cells
  Aβ42-lowering effect (in words): effectively lowered
[1]; [4]
  IC50: ~4.2 µM
[2]
  effect on Aβ40 and Aβ38: much smaller effect

## C[C@@H]1CC[C@@]2(OC1)O[C@H]1C[C@H]3[C@@H]4CC[C@H]5C[C@@H](O)CC[C@]5(C)[C@H]4CC[C@]3(C)[C@H]1[C@@H]2C [Tigogenin (13), tigogenin]
[1]; N2A-APPswe cells
  Aβ42-lowering effect (in words): ineffective
[1]; [4]
  IC50: > 100 µM
Neuro-2A cells
  neurite outgrowth: not shared

## CO[C@]1(CC[C@H](C)CO[C@@H]2O[C@H](CO)[C@@H](O)[C@H](O)[C@H]2O)O[C@H]2C[C@H]3[C@@H]4CC[C@@H]5C[C@@H](O[C@@H]6O[C@H](CO)[C@H](O)[C@H](O)[C@H]6O[C@@H]6O[C@H](CO)[C@@H](O)[C@H](O)[C@H]6O)CC[C@]5(C)[C@H]4CC[C@]3(C)[C@H]2[C@@H]1C [Timosaponin B I (22), Timosaponin B I]
[1]; N2A-APPswe cells
  Aβ42-lowering effect (in words): ineffective
[1]; [4]
  IC50: > 100 µM

## C[C@H]1CC[C@@]2(OC1)O[C@H]1C[C@H]3[C@@H]4CC=C5C[C@@H](O)CC[C@]5(C)[C@H]4CC[C@]3(C)[C@H]1[C@@H]2C [Yamogenin (7), yamogenin]
[1]; N2A-APPswe cells
  Aβ42-lowering effect (in words): no effect
[1]; [5]
  IC50: > 100 µM
Neuro-2A cells
  neurite outgrowth: not shared

## COC1OC(CNC(=O)COC2CCC3(C)C(CCC4C3CCC3(C)C4CC4OC5(CCC(C)CO5)C(C)C43)C2)C(O)C(O)C1O (stereo not drawn) [α-OMe SSG (32), α-OMe SSG]
[1]; [4]
  IC50: 7.2 ± 2.2 µM

## COC1OC(Cn2cc(COC3CCC4(C)C(CCC5C4CCC4(C)C5CC5OC6(CCC(C)CO6)C(C)C54)C3)nn2)C(O)C(O)C1O (stereo not drawn) [α-OMe triazole SSG (28), α-OMe triazole SSG]
[1]; [4]
  IC50: 6.5 ± 2.1 µM

## COC1OC(CNC(=O)COC2CCC3(C)C(CCC4C3CCC3(C)C4CC4OC5(CCC(C)CO5)C(C)C43)C2)C(O)C(O)C1O (stereo not drawn) [β-OMe SSG (33), β-OMe SSG]
[1]; read-out: IC50 in lowering Aβ42 production, N2A-APPswe cells
  IC50: 9.3 ± 3.5 µM
